Experiment [1] concerns the target T1, MRGPRX2 (Homo sapiens, UniProt Q96LB1).
T1 sequence (Q96LB1 1-330): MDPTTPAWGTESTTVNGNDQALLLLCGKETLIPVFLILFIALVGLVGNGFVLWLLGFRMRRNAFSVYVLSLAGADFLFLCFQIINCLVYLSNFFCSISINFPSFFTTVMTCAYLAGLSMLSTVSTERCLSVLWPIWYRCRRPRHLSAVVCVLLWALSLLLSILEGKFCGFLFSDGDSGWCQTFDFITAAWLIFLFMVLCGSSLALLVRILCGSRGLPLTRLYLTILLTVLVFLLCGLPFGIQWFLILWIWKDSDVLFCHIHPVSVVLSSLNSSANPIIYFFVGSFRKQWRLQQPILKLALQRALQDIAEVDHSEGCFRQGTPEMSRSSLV
Description: MRGPRX2 β-Arrestin recruitment assay (PathHunter). It counts as cell-based. More on the design: host or cells: CHO-K1 (PathHunter). The settings on record: PathHunter CHO-K1 MRGPRX2 β-Arrestin cell line; agonist Cortistatin 14 0.25 μM. An excerpt: Example C: MRGPRX2 P-Arrestin Assay
This assay measures compound inhibition of P-Arrestin recruitment, which is part of the G protein-independent pathway that results from the ligand-activated GPCR phosphorylation by specific GPCR kinases. The PathHunter CHO-K1 MRPGRX2 B-Arrestin Cell line stably expressing ProLink tagged MRGPRX2 and Enzyme Acceptor Tagged B-Arrestin was purchased from Eurofins DiscoverX, (Fremont, CA).
The cells were maintained in culture medium from the Europhins DiscoverX Cell Culture Kit-107 which includes FBS, hygromycin B and G418. For the assay, the cells were harvested and were resuspended with Cell Plating Reagent 2 (Eurofins DiscoverX). Cells were added 10000 cells in 25 μL/well to a 384-well black cell culture plate (Greiner VWR, Radnor, PA) which contained 125 nL/well of compound at a selected serially diluted concentration range or DMSO. The plate was incubated at 37° C. with 5% CO2 for 1 h. 2 μL/well of agonist Cortistatin 14 was diluted in Protein Dilution Buffer, (Eurofins DiscoverX) for a final concentration of 0.25 μM, was added and the plate was incubated at 37° C. with 5% CO2 for 90 min. 14 μL/well of Detection Reagent Mix (PathHunter Detection Kit, Eurofins DiscoverX) was added to the plates and further incubated for 1 h in the dark. Plates were read on the PHERAstar microplate reader (BMG Labtech Cary, NC) measuring luminescence 0.1 to 1 second per well. Data was normalized using DMSO only wells and wells with high concentration of reference antagonist as controls. Compound IC50 curves were globally fitted with 3- or 4-parameter Hill equation in a Genedata Screener (Genedata Basel, Switzerland).
On the technique in general: Arrestin recruitment assays detect the binding of arrestin to an activated receptor.

The target in experiment [2] is T1, MRGPRX2. Description: MRGPRX2 IP1 HTRF assay. Details: host or cells: CHO-K1. The conditions noted are these: CHO-K1 cells stably expressing human MRGPRX2; IP1 accumulation; agonist Cortistatin 14 1 μM. It counts as cell-based. An excerpt:
Example B: MRGPRX2 IP1 HTRF Assay
This assay measures compound inhibition of myo-Inositol 1 phosphate (IP1) accumulation in CHO-K1 cells. Chinese hamster ovary (CHO-K1) cells stably expressing human MRGPRX2 were purchased from GenScript (Piscataway, NJ).
For the HTRF IP1 determination, an IP-One GqKit (Perkin Elmer Cisbio, Waltham, MA), which includes all reagents and buffers in this protocol, was used. The cells were maintained in culture medium (Ham's F-12K) containing 10% (v/v) FBS, and 200 μg/mL Zeocin. For the assay, the cells were harvested and resuspended in culture medium with 2% FBS and without Zeocin, then were passed through a 40 μm filter. Cells were added at 20000 cells in a 5 μL/well to a 384-well white small volume cell culture plate (Greiner VWR, Radnor, PA) which contained 50 nL/well of test compound serially diluted at a selected concentration range in DMSO. 5 μL/well of prepared 2× Stimulation Buffer2 was then added to plates and was incubated at 37° C. with 5% CO2 for 1 h. 5 μL/well of agonist Cortistatin 14 (Bio-TechneR&D Systems, Minneapolis, MN) in 1× Stimulation Buffer2, for a 1 μM final concentration, was then added to plates and incubated at 37° C. with 5% CO2 for 1 h. 6 μL/well of 1:20 diluted Detection Reagent Mix (d2 and Cryptate) was added to the plates and incubated for 1 h in the dark. Plates were read on the PHERAstar microplate reader (BMG Labtech Cary, NC) to determine the HTRF ratio of the acceptor and donor emission signals. The IP1 concentrations were calculated from a standard curve following the IP-One GQ kit instructions. Wells with DMSO only and wells with high concentration of reference antagonist were used as controls for normalization. Compound IC50 curves were globally fitted with 3- or 4-parameter Hill equation in a Genedata Screener (Genedata Basel, Switzerland).
Background: In TR-FRET formats the signal depends on donor and acceptor labels being close together.

Structures are written as SMILES.

20 compounds from US20250084087A1, “BICYCLIC HETEROCYCLES AS MRGPRX2 ANTAGONISTS” (Incyte Corporation, priority 2023, published 2025) can be followed below.

As usually defined, the IC50 is the concentration needed to halve the response being measured. A low value points to greater potency in that assay.

`OC1CCC(CNc2cc(C(F)(F)F)nc3cc(Br)nn23)(c2ccncc2)C1` (racemic) [Example 86, 3-(((2-Bromo-5-(trifluoromethyl)pyrazolo[1,5-a]pyrimidin-7-yl)amino)methyl)-3-(pyridin-4-yl)cyclopentan-1-ol] displayed an IC50 on MRGPRX2 [1] of 0.1 to 100 nM.

With `OCC1CC1(CNc1cc(C(F)(F)F)nc2cc(Br)nn12)c1ccccn1` (single isomer, unassigned) [Example 88, (2-(((2-Bromo-5-(trifluoromethyl)pyrazolo[1,5-a]pyrimidin-7-yl)amino)methyl)-2-(pyridin-2-yl)cyclopropyl)methanol], on MRGPRX2 [1], the IC50 is greater than 1000 nM.

In the case of `OCC1CC1(CNc1cc(C(F)(F)F)nc2cc(Br)nn12)c1ccccc1` (single isomer, unassigned) [Example 89, (2-(((2-Bromo-5-(trifluoromethyl)pyrazolo[1,5-a]pyrimidin-7-yl)amino)methyl)-2-phenylcyclopropyl)methanol], the IC50 on MRGPRX2 [1] was 100 to 1000 nM.

For the compound `NC(=O)N1CCC(CNc2cc(Cl)nc3nc(C(F)(F)F)cn23)(c2ccccc2)CC1` [Example 1, 4-(((7-Chloro-2-(trifluoromethyl)imidazo[1,2-a]pyrimidin-5-yl)amino)methyl)-4-phenylpiperidine-1-carboxamide], the IC50 at MRGPRX2 [2] is 100 to 1000 nM.

Compound `NC(=O)N1CCC(CNc2nccc3nc(C(F)(F)F)cn23)(c2ccccc2)CC1` [Example 2, 4-Phenyl-4-(((2-(trifluoromethyl)imidazo[1,2-c]pyrimidin-5-yl)amino)methyl)piperidine-1-carboxamide] gave a half-maximal inhibitory concentration (IC50) on MRGPRX2 [2] of 100 to 1000 nM.

As for `CNC(=O)N1CC(CNc2cc(Cl)cc3nc(C(F)(F)F)cn23)(c2ccc(F)cn2)C1` [Example 25, 3-(((7-Chloro-2-(trifluoromethyl)imidazo[1,2-a]pyridin-5-yl)amino)methyl)-3-(5-fluoropyridin-2-yl)-N-methylazetidine-1-carboxamide], the IC50 on MRGPRX2 [1] and on MRGPRX2 [2] was 0.1 to 100 nM throughout.

`CNC(=O)N1CC(CNc2cc(C(F)(F)F)nc3cc(C(F)(F)F)nn23)(n2cc(F)cn2)C1` [Example 41, 3-(((2,5-Bis(trifluoromethyl)pyrazolo[1,5-a]pyrimidin-7-yl)amino)methyl)-3-(4-fluoro-1H-pyrazol-1-yl)-N-methylazetidine-1-carboxamide]: the IC50 on MRGPRX2 [1] and on MRGPRX2 [2] was 0.1 to 100 nM each time.

In the case of `Nc1nc(N2CCC(CNc3cc(C(F)F)nc4cc(C(F)(F)F)nn34)(c3ccccc3)CC2)n[nH]1` [Example 42, N-((1-(5-Amino-1H-1,2,4-triazol-3-yl)-4-phenylpiperidin-4-yl)methyl)-5-(difluoromethyl)-2-(trifluoromethyl)pyrazolo[1,5-a]pyrimidin-7-amine], the IC50 at MRGPRX2 [1] and at MRGPRX2 [2] was 0.1 to 100 nM each time.

In turn, `O=c1cc(N2CC(CNc3cc(C(F)(F)F)nc4cc(C(F)(F)F)nn34)(c3ccc(F)cc3)C2)ccn1C1CC1` [Example 51, 4-(3-(((2,5-Bis(trifluoromethyl)pyrazolo[1,5-a]pyrimidin-7-yl)amino)methyl)-3-(4-fluorophenyl)azetidin-1-yl)-1-cyclopropylpyridin-2(1H)-one] came in with an IC50 at MRGPRX2 [1] of 0.1 to 100 nM.

For the compound `N#CC12CC(NC(=O)N3CC(CNc4cc(C(F)(F)F)nc5cc(C(F)(F)F)nn45)(c4ccc(F)cn4)C3)(C1)C2` [Example 64, 3-(((2,5-Bis(trifluoromethyl)pyrazolo[1,5-a]pyrimidin-7-yl)amino)methyl)-N-(3-cyanobicyclo[1.1.1]pentan-1-yl)-3-(5-fluoropyridin-2-yl)azetidine-1-carboxamide], the IC50 at MRGPRX2 [1] fell in the range of 0.1 to 100 nM.

In the case of `[2H]C([2H])([2H])c1cc(NCC2(c3ccc(F)cc3)CN(C(N)=O)C2)n2nc(C(F)(F)F)cc2n1` [Example 70, 3-(4-Fluorophenyl)-3-(((5-(methyl-d3)-2-(trifluoromethyl)pyrazolo[1,5-a]pyrimidin-7-yl)amino)methyl)azetidine-1-carboxamide], the IC50 at MRGPRX2 [1] lay within 0.1 to 100 nM.

The compound `CCc1cc(NCC2(c3ccc(F)cc3)CCC(N)(C#N)CC2)n2nc(C(F)(F)F)cc2n1` (centres unmarked) [Example 72, 1-Amino-4-(((5-ethyl-2-(trifluoromethyl)pyrazolo[1,5-a]pyrimidin-7-yl)amino)methyl)-4-(4-fluorophenyl)cyclohexane-1-carbonitrile] came in with a half-maximal inhibitory concentration (IC50) at MRGPRX2 [1] of 0.1 to 100 nM.

For `CO[C@H]1C[C@](CNc2cc(C(F)(F)F)nc3cc(C(F)(F)F)nn23)(c2ccccc2)C1` [Example 75, N-(((1s,3s)-3-Methoxy-1-phenylcyclobutyl)methyl)-2,5-bis(trifluoromethyl)pyrazolo[1,5-a]pyrimidin-7-amine], the IC50 at MRGPRX2 [1] was in the range of 0.1 to 100 nM.

As for `NC(=O)C1(N)CC(CNc2cc(C(F)(F)F)nc3cc(C(F)(F)F)nn23)(c2ccc(F)cc2)C1` (centres unmarked) [Example 76, 1-Amino-3-(((2,5-bis(trifluoromethyl)pyrazolo[1,5-a]pyrimidin-7-yl)amino)methyl)-3-(4-fluorophenyl)cyclobutane-1-carboxamide], the IC50 on MRGPRX2 [1] was in the range of 0.1 to 100 nM.

Consider `NC(=O)N1CC(CNc2cc(Cl)cc3nc(C(F)(F)F)nn23)(c2ccccc2)C1` [Example 79, 3-(((7-Chloro-2-(trifluoromethyl)-[1,2,4]triazolo[1,5-a]pyridin-5-yl)amino)methyl)-3-phenylazetidine-1-carboxamide], for which the IC50 at MRGPRX2 [1] was in the range of 0.1 to 100 nM.

At MRGPRX2 [1], `OC1CC(CNc2cc(C(F)(F)F)nc3nc(C(F)(F)F)cn23)(c2ccc(F)cc2)C1` (centres unmarked) [Example 80, 3-(((2,7-Bis(trifluoromethyl)imidazo[1,2-a]pyrimidin-5-yl)amino)methyl)-3-(4-fluorophenyl)cyclobutan-1-ol] returned an IC50 of 0.1 to 100 nM.

In the case of `CNC1CCC(CNc2cc(C(F)(F)F)nc3cc(Br)nn23)(c2cccnc2)C1` (centres unmarked) [Example 87, 2-Bromo-N-((3-(methylamino)-1-(pyridin-3-yl)cyclopentyl)methyl)-5-(trifluoromethyl)pyrazolo[1,5-a]pyrimidin-7-amine], on MRGPRX2 [1], the IC50 lay in the range of 0.1 to 100 nM.

In the case of `Cc1ccc(C2(CNc3cc(C(F)(F)F)nc4cc(C(F)(F)F)nn34)CN(S(N)(=O)=O)C2)cn1` [Example 97, 3-(((2,5-Bis(trifluoromethyl)pyrazolo[1,5-a]pyrimidin-7-yl)amino)methyl)-3-(6-methylpyridin-3-yl)azetidine-1-sulfonamide], on MRGPRX2 [1], the concentration for half-maximal inhibition (IC50) fell in the range of 100 to 1000 nM.

The compound `[2H]C([2H])([2H])NC(=O)N1CC(CNc2cc(C3CC3)nc3cc(C(F)(F)F)nn23)(c2ccc(C(=O)N(C)C)cc2)C1` [Example 107, 3-(((5-Cyclopropyl-2-(trifluoromethyl)pyrazolo[1,5-a]pyrimidin-7-yl)amino)methyl)-3-(4-(dimethylcarbamoyl)phenyl)-N-(methyl-d3)azetidine-1-carboxamide] displayed an IC50 at MRGPRX2 [1] greater than 1000 nM.

Compound `[2H]C([2H])([2H])NC(=O)N1CC(CNc2cc(C3CCC3)nc3cc(C(F)(F)F)nn23)(c2ccc(F)cc2)C1` [Example 108, 3-(((5-Cyclobutyl-2-(trifluoromethyl)pyrazolo[1,5-a]pyrimidin-7-yl)amino)methyl)-3-(4-fluorophenyl)-N-(methyl-d3)azetidine-1-carboxamide] yielded an IC50 at MRGPRX2 [1] of 100 to 1000 nM.
